Results on 28 molecules are retold here after patent US6627202B2, “HBV core antigen particles with multiple immunogenic components attached via peptide ligands” (Biogen, Inc., priority 1998, dated 2003).

Series [1] addresses binding of L HBsAg to HBV core antigen (Hepatitis B virus genotype D subtype adw, UniProt P03147). Particulars: N/D represents no observable inhibition; read-out: IC50 μM, concentration of peptide required to inhibit binding of L HBsAg to HBV core antigen at a half maximal level; cited from earlier work.
Another series concerns the target HBV core antigen (Hepatitis B virus genotype D subtype adw, UniProt P03147). Particulars: fd fusion phage carrying the peptide sequence in the amino terminal region of gpIII; in solution, phage associated form; read-out: KD^Rel (nM) relative dissociation constant; cited from earlier work.
A short description of series [2]: storage stability of HBV core antigen preparations. It counts as physicochemical. The conditions noted are these: 4° C., sucrose gradient fractions in TBS, sucrose (20%), NaN3 (0.02%). The procedure: Expression of either HBV core antigen (aa3-183) or C-terminally truncated HBV core antigen aa3-148) in E.coli and purification were performed as described in Dyson and Murray (1995). Protein preparations were stored at 4° C. as sucrose gradient fractions in a buffer containing TBS, sucrose (20%) and NaN3 (0.02%).

As usually defined, the Kd is the concentration at which binding is half-saturated.

Values joined by “and” are separate entries in the source; they are usually repeats but may differ in a detail not shown here. Identical values can stand only once. Non-standard residues stand in square brackets, D forms with d. No end group written: not given here. βAla = NCCC(=O)O

Sequence of HBV core antigen (P03147 3-183): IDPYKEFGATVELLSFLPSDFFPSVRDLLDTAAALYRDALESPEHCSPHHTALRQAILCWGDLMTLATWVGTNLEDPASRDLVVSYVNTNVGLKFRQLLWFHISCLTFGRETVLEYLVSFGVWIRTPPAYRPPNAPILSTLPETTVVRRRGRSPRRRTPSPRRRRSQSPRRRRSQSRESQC
Sequence of binding of L HBsAg to HBV core antigen (P03147 3-183): as above

On to ACSLLGRMKG, for which the IC50 in series [1] was 26.2 ± 5 µM. For the molecule ADGAHRSLLGRMKGA, the Kd at HBV core antigen is 0.94 ± 0.12 nM. As to ADGALLGRMKPA, the Kd at HBV core antigen is 767 ± 8 nM.

ADGALLGRMKRA: the Kd on HBV core antigen was 181 ± 12 nM. On to ADGHRSSLLGRMKGA, for which the Kd at HBV core antigen is 1.4 ± 0.13 nM.

Regarding ADGPRSSLLGRMKGA, the Kd on HBV core antigen is 0.84 ± 0.07 nM. In the case of ADGSLLGRMKGAAG, in series [1], the IC50 was 4.5 ± 0.8 µM. As for ADGSLLGRMKPA, on HBV core antigen, the Kd is 322 ± 50 nM. For ADGSRSSLLGRMKGA, the Kd at HBV core antigen was 1.96 ± 0.32 nM. As to ADGTLLGRMKLA, the Kd at HBV core antigen is 20 ± 2 nM. On to ADGTQRSLLGRMKGA, for which, on HBV core antigen, the Kd was 0.84 ± 0.06 nM. As for ADGYQRSLLGRMKGA, at HBV core antigen, the Kd was 0.88 ± 0.08 nM. For ADRSLLGRMKGA, at HBV core antigen, the Kd was 1.09 ± 0.02 nM.

On to ALLGRMKG, for which the IC50 in series [1] was 10 µM and 11 µM. For CLLGRMKC, in series [1], the IC50 is 652 ± 74 µM. DGSLLGRMKGAA: the IC50 in series [1] was 3 ± 0.4 µM. Consider HRSLLGRMKGA, for which the IC50 in series [1] is 0.5 ± 0.04 µM.

With LGRMKG, the IC50 in series [1] was 980 ± 157 µM. On to LLGRMKG, for which the IC50 in series [1] was 46.2 ± 7.4 µM.

Consider MHRSLLGRMKGA, for which the IC50 in series [1] was 0.8 ± 0.1 µM. For the molecule MHRSLLGRMKGAG(β-A)GC, the IC50 in series [1] was 3.8 ± 0.69 µM. With RSLLGRMKGA, the IC50 in series [1] is 0.29 ± 0.02 µM. Regarding RSLLGRMKGA(β-A)C (RSLLGRMKGA[βAla]C), the IC50 in series [1] is 0.29 ± 0.03 µM. SLLGRMK: the IC50 in series [1] is 40.7 ± 4.8 µM. As for SLLGRMKG, the IC50 in series [1] was 6.4 ± 0.7 µM. In the case of SLLGRMKG(β-A)C (SLLGRMKG[βAla]C), in series [1], the IC50 was 1.8 ± 0.4 µM.

Take SLLGRMKGA: the IC50 in series [1] was 2.4 ± 0.2 µM.

B1: C-terminally truncated HBV core antigen aa3-148: C-terminally truncated HBV core antigen expressed in E.coli (protein)
chain: IDPYKEFGATVELLSFLPSDFFPSVRDLLDTASALYREALESPEHCSPHHTALRQAILCWGELMTLATWVGVNLEDPASRDLVVSYVNTNMGLKFRQLLWFHISCLTFGRETVIEYLVSFGVWIRTPPAYRPPNAPILSTLPETTV
In the case of B1, in series [2], the “stability of protein preparation on storage” value is recorded as “stable in this form for at least six months”.
